Measurements: BindingDB's records for doi:10.7270/Q2959G44 (Burnham Center For Chemical Genomics, 2012)

Target: Dual specificity protein phosphatase 3 (Homo sapiens, UniProt P51452)
Assay: VHR phosphatase inhibition, dose response, selectivity assay for STEP inhibitor project, biochemical (AID 602374)

Chain of Dual specificity protein phosphatase 3 (P51452 whole entry): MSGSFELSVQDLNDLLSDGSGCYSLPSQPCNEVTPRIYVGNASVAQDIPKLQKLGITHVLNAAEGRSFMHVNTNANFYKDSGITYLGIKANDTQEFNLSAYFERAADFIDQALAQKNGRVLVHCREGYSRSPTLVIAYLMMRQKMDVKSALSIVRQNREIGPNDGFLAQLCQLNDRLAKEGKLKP

`CCN(CC)P(=O)(NC(=O)C(Cl)(Cl)Cl)N(CC)CC` [MLS000564159] was tested, and the IC50 was 3250 nM.

In the case of `O=C(N/N=C/C1C=CC=CC1=O)c1cccc([N+](=O)[O-])c1` (stereo not given) [MLS002667988], the IC50 is reported as 3130 nM.

Compound `COc1ccc(CN=Nc2nc(O)c(CC(=O)O)s2)cc1OCc1ccc(Cl)cc1Cl` [[2-({3-[(2,4-dichlorobenzyl)oxy]-4-methoxybenzylidene}hydrazono)-4-oxo-1,3-thiazolidin-5-yl]acetic acid] has an IC50 of 4790 nM.

`CCOc1cc(CN=Nc2nc(O)c(CC(=O)O)s2)ccc1OCc1ccc(Cl)cc1Cl` [2-[2-[(N''E)-N''-[4-(2,4-dichlorobenzyl)oxy-3-ethoxy-benzylidene]hydrazino]-4-keto-2-thiazolin-5-yl]acetic acid] gave an IC50 of 2420 nM.

With `C=c1c(O)c(O)c(=C2C(=O)C(=O)C(C)C(=O)C2=O)c(O)c1O` (stereo not given) [(3E)-5-hydroxy-6-methyl-3-(2,3,5-trihydroxy-4-methyl-6-oxo-1-cyclohexa-2,4-dienylidene)cyclohex-5-ene-1,2,4-trione] the IC50 was 1270 nM.

Compound `S=C1N=C2C(=C3SCCS3)CCCC2C(c2ccccc2)N1` (stereo not given) [MLS000516376] has an IC50 of 1230 nM.

Compound `O=C1C(=O)N(CCCO)C(c2ccc(Br)cc2)C1C(=O)c1ccc(Br)cc1` (stereo not given) [(4E)-5-(4-bromophenyl)-4-[(4-bromophenyl)-oxidanyl-methylidene]-1-(3-oxidanylpropyl)pyrrolidine-2,3-dione] has an IC50 of 73400 nM.

Work on `CSc1ccc(CN=Nc2ccc(S(=O)(=O)Nc3ccccc3C(=O)O)cc2[N+](=O)[O-])cc1` [MLS002245633] yielded an IC50 of 1270 nM.

`COc1ccc(OC)c(-n2c(O)c3o[nH]c(-c4ccccc4Cl)c-3c2=O)c1` [SMR000046218] showed an IC50 of 833 nM.

Compound `S=C1N=C(C23CC4CC(CC(C4)C2)C3)CC(c2ccc3c(c2)OCO3)N1` (stereo not given) has an IC50 of 3520 nM.
